Organism: Rattus norvegicus
Experiment: DrugMatrix - Regimen: Daily Repeat
Assay type: toxicity, organism-based, Sprague-Dawley
Set-up: regimen Daily Repeat, gender Male, age 6-8 weeks
Conditions: in vivo, po, route oral GAVAGE, vehicle .5 % CMC; for BASOPHIL / EOSINOPHIL / ERYTHROCYTE COUNT / HEMATOCRIT / HEMOGLOBIN / LEUKOCYTE COUNT / LYMPHOCYTE / MEAN CORPUSCULAR HEMOGLOBIN / MEAN CORPUSCULAR HEMOGLOBIN CONCENTRATION / MEAN CORPUSCULAR VOLUME / MONOCYTE / NEUTROPHIL / PLATELET COUNT: tissue Blood; for ALANINE AMINOTRANSFERASE / ALBUMIN / ALKALINE PHOSPHATASE / ASPARTATE AMINOTRANSFERASE / BLOOD UREA NITROGEN / CARBON DIOXIDE / CHLORIDE / CHOLESTEROL / CREATINE PHOSPHOKINASE / CREATININE / GLUCOSE / LACTATE DEHYDROGENASE / LIPASE / PHOSPHORUS / POTASSIUM / SODIUM / TOTAL BILIRUBIN / TOTAL PROTEIN / URIC ACID: tissue Plasma
[1] = 0 mg/kg, 72 h, dose level Control, time 3 day
[2] = 0 mg/kg, 120 h, dose level Control, time 5 day
[3] = 0 mg/kg, […], dose level Control, time 14 day
[4] = 200 mg/kg, 72 h, dose level High, time 3 day
[5] = 200 mg/kg, 120 h, dose level High, time 5 day

## Nc1cccc(Cl)c1 [3-CHLOROANILINE]
[1]
  BASOPHIL: 0.62%
  EOSINOPHIL: 0.52%
  ERYTHROCYTE COUNT: 6.33 x10E6/uL
  HEMATOCRIT: 41.88%
  HEMOGLOBIN: 13.52 G/DL
  LEUKOCYTE COUNT: 11.39 x10E3/uL
  LYMPHOCYTE: 86.18%
  MEAN CORPUSCULAR HEMOGLOBIN: 21.35 pg
  MEAN CORPUSCULAR HEMOGLOBIN CONCENTRATION: 32.23 G/DL
  MEAN CORPUSCULAR VOLUME: 66.25 fL
  MONOCYTE: 1.93%
  NEUTROPHIL: 9.1%
  PLATELET COUNT: 1204.5 x10E3/uL
  ALANINE AMINOTRANSFERASE: 43 u/L
  ALBUMIN: 4.08 G/DL
  ALKALINE PHOSPHATASE: 426.33 u/L
  ASPARTATE AMINOTRANSFERASE: 72.5 u/L
  BLOOD UREA NITROGEN: 16.67 mg/dL
  CARBON DIOXIDE: 28.33 mmol/L
  CHLORIDE: 103.5 MEQ/L
  CHOLESTEROL: 78.83 mg/dL
  CREATINE PHOSPHOKINASE: 325.67 u/L
  CREATININE: 0.48 mg/dL
  GLUCOSE: 171.67 mg/dL
  LACTATE DEHYDROGENASE: 107.33 u/L
  LIPASE: 11.83 u/L
  PHOSPHORUS: 12.55 mg/dL
  POTASSIUM: 6.57 MEQ/L
  SODIUM: 145.67 MEQ/L
  TOTAL BILIRUBIN: 0.42 mg/dL
  TOTAL PROTEIN: 6.1 G/DL
  URIC ACID: 1.57 mg/dL
[2]
  BASOPHIL: 0.48%
  EOSINOPHIL: 0.67%
  ERYTHROCYTE COUNT: 6.69 x10E6/uL
  HEMATOCRIT: 44.17%
  HEMOGLOBIN: 13.78 G/DL
  LEUKOCYTE COUNT: 7.86 x10E3/uL
  LYMPHOCYTE: 85.9%
  MEAN CORPUSCULAR HEMOGLOBIN: 20.6 pg
  MEAN CORPUSCULAR HEMOGLOBIN CONCENTRATION: 31.25 G/DL
  MEAN CORPUSCULAR VOLUME: 65.9 fL
  MONOCYTE: 3.27%
  NEUTROPHIL: 8.67%
  PLATELET COUNT: 1182.33 x10E3/uL
  ALANINE AMINOTRANSFERASE: 37.5 u/L
  ALBUMIN: 4 G/DL
  ALKALINE PHOSPHATASE: 348.17 u/L
  ASPARTATE AMINOTRANSFERASE: 71.67 u/L
  BLOOD UREA NITROGEN: 13 mg/dL
  CARBON DIOXIDE: 27 mmol/L
  CHLORIDE: 104.67 MEQ/L
  CHOLESTEROL: 73.33 mg/dL
  CREATINE PHOSPHOKINASE: 211.33 u/L
  CREATININE: 0.23 mg/dL
  GLUCOSE: 155 mg/dL
  LACTATE DEHYDROGENASE: 133.83 u/L
  LIPASE: 11.17 u/L
  PHOSPHORUS: 14.53 mg/dL
  POTASSIUM: 6.65 MEQ/L
  SODIUM: 148.17 MEQ/L
  TOTAL BILIRUBIN: 0.28 mg/dL
  TOTAL PROTEIN: 6.22 G/DL
  URIC ACID: 1.57 mg/dL
[3]
  BASOPHIL: 0.97%
  EOSINOPHIL: 0.8%
  ERYTHROCYTE COUNT: 7.02 x10E6/uL
  HEMATOCRIT: 44.43%
  HEMOGLOBIN: 14.58 G/DL
  LEUKOCYTE COUNT: 16.49 x10E3/uL
  LYMPHOCYTE: 79.03%
  MEAN CORPUSCULAR HEMOGLOBIN: 20.85 pg
  MEAN CORPUSCULAR HEMOGLOBIN CONCENTRATION: 32.78 G/DL
  MEAN CORPUSCULAR VOLUME: 63.57 fL
  MONOCYTE: 1.9%
  NEUTROPHIL: 15.18%
  PLATELET COUNT: 1184.33 x10E3/uL
  ALANINE AMINOTRANSFERASE: 43 u/L
  ALBUMIN: 4.25 G/DL
  ALKALINE PHOSPHATASE: 409.67 u/L
  ASPARTATE AMINOTRANSFERASE: 84.17 u/L
  BLOOD UREA NITROGEN: 16 mg/dL
  CARBON DIOXIDE: 35.17 mmol/L
  CHLORIDE: 99.83 MEQ/L
  CHOLESTEROL: 68.67 mg/dL
  CREATINE PHOSPHOKINASE: 384.17 u/L
  CREATININE: 0.43 mg/dL
  GLUCOSE: 160 mg/dL
  LACTATE DEHYDROGENASE: 115.33 u/L
  LIPASE: 17.33 u/L
  PHOSPHORUS: 10.68 mg/dL
  POTASSIUM: 6.48 MEQ/L
  SODIUM: 148.17 MEQ/L
  TOTAL BILIRUBIN: 0.45 mg/dL
  TOTAL PROTEIN: 6.57 G/DL
  URIC ACID: 1.78 mg/dL
[4]
  BASOPHIL: 0.8%
  EOSINOPHIL: 0.35%
  ERYTHROCYTE COUNT: 6.14 x10E6/uL
  HEMATOCRIT: 40.2%
  HEMOGLOBIN: 12.45 G/DL
  LEUKOCYTE COUNT: 16.22 x10E3/uL
  LYMPHOCYTE: 78.8%
  MEAN CORPUSCULAR HEMOGLOBIN: 20.3 pg
  MEAN CORPUSCULAR HEMOGLOBIN CONCENTRATION: 31 G/DL
  MEAN CORPUSCULAR VOLUME: 65.45 fL
  MONOCYTE: 2.65%
  NEUTROPHIL: 16.45%
  PLATELET COUNT: 1382 x10E3/uL
  ALANINE AMINOTRANSFERASE: 38.5 u/L
  ALBUMIN: 4.1 G/DL
  ALKALINE PHOSPHATASE: 564 u/L
  ASPARTATE AMINOTRANSFERASE: 78.5 u/L
  BLOOD UREA NITROGEN: 14 mg/dL
  CARBON DIOXIDE: 30.5 mmol/L
  CHLORIDE: 106 MEQ/L
  CHOLESTEROL: 63.5 mg/dL
  CREATINE PHOSPHOKINASE: 161 u/L
  CREATININE: 0.4 mg/dL
  GLUCOSE: 168.5 mg/dL
  LACTATE DEHYDROGENASE: 65.5 u/L
  LIPASE: 14.5 u/L
  PHOSPHORUS: 13.95 mg/dL
  POTASSIUM: 6.9 MEQ/L
  SODIUM: 148 MEQ/L
  TOTAL BILIRUBIN: 0.5 mg/dL
  TOTAL PROTEIN: 6.1 G/DL
  URIC ACID: 1.65 mg/dL
[5]
  BASOPHIL: 0.4%
  EOSINOPHIL: 0.7%
  ERYTHROCYTE COUNT: 5.95 x10E6/uL
  HEMATOCRIT: 43%
  HEMOGLOBIN: 13 G/DL
  LEUKOCYTE COUNT: 15.09 x10E3/uL
  LYMPHOCYTE: 67.85%
  MEAN CORPUSCULAR HEMOGLOBIN: 21.85 pg
  MEAN CORPUSCULAR HEMOGLOBIN CONCENTRATION: 30.25 G/DL
  MEAN CORPUSCULAR VOLUME: 72.25 fL
  MONOCYTE: 4.1%
  NEUTROPHIL: 26.4%
  PLATELET COUNT: 1312 x10E3/uL
  ALANINE AMINOTRANSFERASE: 35 u/L
  ALBUMIN: 4.1 G/DL
  ALKALINE PHOSPHATASE: 356 u/L
  ASPARTATE AMINOTRANSFERASE: 72.5 u/L
  BLOOD UREA NITROGEN: 12 mg/dL
  CARBON DIOXIDE: 29.5 mmol/L
  CHLORIDE: 103.5 MEQ/L
  CHOLESTEROL: 69.5 mg/dL
  CREATINE PHOSPHOKINASE: 182 u/L
  CREATININE: 0.25 mg/dL
  GLUCOSE: 150.5 mg/dL
  LACTATE DEHYDROGENASE: 149 u/L
  LIPASE: 9 u/L
  PHOSPHORUS: 13.05 mg/dL
  POTASSIUM: 6.45 MEQ/L
  SODIUM: 148.5 MEQ/L
  TOTAL BILIRUBIN: 0.55 mg/dL
  TOTAL PROTEIN: 6.3 G/DL
  URIC ACID: 1.75 mg/dL
